Results reported in article PMC10614388, “Genoprotective potential of Macaranga species phytochemical compounds on HT-29 human colorectal adenocarcinoma cell line” (Genes and Environment, 2023).
“Also recorded” adds a separate entry of the source. Read-outs that look alike come from different tables or passages of the source.

Legend:
HT-29 cells [1] = experiment: Alkaline Comet assay, protection against menadione-induced genotoxicity
Experimental: (§1) Alkaline Comet Assay was used to assess strand breaks in DNA indicative of DNA damage. The experiment was carried out according to previous study by Tan et al.. […] Cells were also treated with hydrogen peroxide (H2O2) (as positive control, 1.0 mM) for 30 min. […] Following respective incubations, detached cells in the media were collected, added to trypsinize cells and centrifuged (2500 rpm/5 min). The supernatant was removed, and the pellet was washed with Ca^2+−/Mg^2+-free PBS before re-centrifugation. Pellets left at the bottom were mixed thoroughly with 80 µl of 0.6% low melting agarose (LMA) (w/v) and the mixture was pipetted onto hardened 0.6% normal melting agarose (NMA) (w/v) on the slide. Coverslips were placed to spread the mixture and the slides were left on ice for LMA to solidify. Following the removal of the coverslips, the embedded cells were lysed in lysis buffer containing 2.5 M NaCl, 100 mM Na2EDTA, 10 mM Tris, and 1% Triton X-100 for 1 h at 4 °C. Slides were soaked in electrophoresis buffer solution for 20 min at 4 °C for DNA-unwinding before electrophoresis at 300 mA, 25 V, for 20 min. Subsequently, the slides were rinsed with neutralizing buffer for 5 min and stained with […] ethidium bromide solution. Slides were analysed using Leitz Laborlux epifluorescence microscope equipped with 515 barrier filter and 560 emission filter. Fifty cells per slide were scored and the tail moment (TM) and % tail DNA (TD) were analyzed with COMET assay III (Perceptive Instruments, UK).

HT-29 cells [2] = experiment: Annexin V-FITC/PI apoptosis assay (flow cytometry); type: cell-based, human
Experimental: The mode of cell death was determined using the Annexin V-FITC/PI apoptosis assay. Cells were treated with IC50 value of the selected compound and apoptosis assessment were done at 4 h, 24 and 48 h respectively. 100µM of menadione was used as a positive control with an enriched media act as a negative control. The measurement of apoptosis is based on phosphatidylserine (PS) exposure as described previously. Briefly, cells were collected and resuspended in […] annexin V buffer containing […] FITC-conjugated annexin V and incubated for 15 min in the dark. Propidium iodide ([…] of 50 mg/ml stock in PBS) was then added and samples were subjected to flow cytometric analysis using FACS CANTO II (BD Biosciences, San Jose, CA, USA).

HT-29 cells [3] = experiment: Reactive oxygen species by dihydroethidine (HE) staining (flow cytometry); type: cell-based, human
Experimental: The generation of superoxide anion was determined as described previously. […] Cells were then centrifuged at 220 g for 5 min and resuspended in 1 ml PBS. Flow cytometry was performed using FACS CANTO II (BD Bioscience).

[4] = test system: HT-29 human colorectal adenocarcinoma cell line; experiment: Sulforhodamine B (SRB) cytotoxicity assay; type: cell-based; details: HT-29 cells, 48 h treatment
Experimental: (§2) HT-29 (HTB-38™) cells were grown in McCoy’s 5a Modified Medium (Sigma-Aldrich, St. Louis, MO, USA) while CCD-18Co (CRL-1459™) cells were grown in Eagle’s Minimum Essential Medium (EMEM; Thermo Fisher Scientific, Waltham, MA, USA). Both culture media were supplemented with 10% foetal bovine serum (FBS; Thermo Fisher Scientific, Waltham, MA, USA) and penicillin-streptomycin antibiotic (Thermo Fisher Scientific, Waltham, MA, USA). Non-essential amino acids (NEAA; Thermo Fisher Scientific, Waltham, MA, USA) were added to the completed EMEM media. Cells were maintained at 37 °C in a 5% CO2 incubator. Cells were detached via trypsinization (0.025% trypsin) after reaching confluency and were ready to be used for tests.
(§3) Sulforhodamine B (SRB) assay was used to assess the cytotoxicity of the compounds [17]. Briefly, HT-29 and CCD-18Co cells were seeded in 96-well-plate at 1.5 × 10^5 cells/ml respectively and were incubated at 37 °C in 5% CO2 for 24 h. 100 µl of six concentrations of serially diluted compounds (0.94–30 µg/ml) were added in their respective wells. Hydrogen peroxide (10 mM) was used as the positive control. The plate was incubated for 48 h. Cells were fixed with 50 µl of 50% cold (4 °C) trichloroacetic Acid (TCA) and incubated at 4 °C for 1 h. The plates were washed five times with tap water and air-dried before staining with 100 µL of 0.4% (w/v) SRB staining solution (Sigma-Aldrich, St. Louis, MO, USA). Further incubation was done for 30 min at room temperature. Subsequently, the plates were washed three times with 1% (v/v) acetic acid to remove any unbound stains. After air-dried, 200 µL of 10 mM trizma base were added into each well and agitated for 15 min. Absorbance was read with a microplate reader with Microplate Manager® Software at the wavelength of 564 nm. All experiments were carried out in triplicates.

[5] = test system: murine leukemia P-388 cells; set-up: method as in earlier work; details: Tanjung et al. (2017); cited from earlier work
HT-29 cells [6] = details: human, 21.2 µM
Experimental: as §1

[7] = test system: CCD-18Co human normal colon cell line; experiment: Sulforhodamine B (SRB) cytotoxicity assay; type: cell-based; details: CCD-18Co cells, 48 h treatment
Experimental: as §2, §3

[8] = set-up: method as in doi:10.1016/j.phytol.2019.02.002; details: cited from earlier work
[9] = menadione 100 µM, 4-hour incubation
[10] = pre-treated with Laevifolin A at IC50 for 20 h, followed by 4-hour menadione (100 µM)

CC1=CC(=O)c2ccccc2C1=O [Menadione, reference compound]
Level of DNA damage, % tail DNA (HT-29 cells [1]; [9]): *23.4 ± 3.1% | Level of DNA damage, Tail moment (HT-29 cells [1]; [9]): *7.00 ± 0.8 Arbitrary unit | induction of apoptotic cells (HT-29 cells [2]; positive control at 100 µM): significant (p < 0.05) increase of apoptotic cells | percentage of cells with HE uptake (generation of ROS) (HT-29 cells [3]; menadione at 100 µM, positive control): 22.6 ± 1.0%

CC(C)=CCc1cc(CCc2c(CC=C(C)C)c(O)cc(O)c2CC=C(C)C)cc(O)c1O [Laevifolin B]
IC50 [4]: no IC50 values were obtained | IC50 [5]: 12.3 ± 0.6 µM

CC(C)=CCc1cc(CCc2c(CC=C(C)C)c(O)cc(O)c2CC=C(C)C)ccc1O [Malayheyneiin A]
IC50 [4]: no IC50 values were obtained

CC(C)=CCc1c(CCc2c(CC=C(C)C)c(O)cc(O)c2CC=C(C)C)ccc(O)c1O [Laevifolin A]
Level of DNA damage, % tail DNA (HT-29 cells [6]; 30 min): 6.4 ± 1.6% | Level of DNA damage, Tail moment (HT-29 cells [6]; 30 min): 0.53 ± 0.1 Arbitrary unit | Level of DNA damage, % tail DNA (HT-29 cells [6]; 1 h): 6.0 ± 0.6% | Level of DNA damage, Tail moment (HT-29 cells [6]; 1 h): 0.45 ± 0.03 Arbitrary unit | Level of DNA damage, % tail DNA (HT-29 cells [6]; 4 h): 4.3 ± 1.2% | Level of DNA damage, Tail moment (HT-29 cells [6]; 4 h): 0.31 ± 0.1 Arbitrary unit | Level of DNA damage, % tail DNA (HT-29 cells [6]; 24 h): 7.8 ± 0.7% | Level of DNA damage, Tail moment (HT-29 cells [6]; 24 h): 0.69 ± 0.1 Arbitrary unit | IC50 [7]: 59.5 µM | IC50 ([4]; Homo sapiens, read-out: IC50): 21.2 µM | IC50 [5]: 4.3 ± 0.6 µM | Level of DNA damage, % tail DNA (HT-29 cells [1]; [10]): 1.24 ± 0.1% | Level of DNA damage, Tail moment (HT-29 cells [1]; [10]): 9.8 ± 0.9 Arbitrary unit | induction of apoptotic cells (HT-29 cells [2]; Laevifolin A at IC50 (21.2 µM), 4 h, 24 and 48 h, compared to negative control): no induction of apoptosis; also recorded: no significant induction of apoptotic cells; also recorded: did not induce apoptosis | percentage of cells with HE uptake (generation of ROS) (HT-29 cells [3]; Laevifolin A at IC50 (21.2 µM), compared with negative control): no significant increase; also recorded: no significant increase or decrease of ROS | antioxidant properties, DPPH radical scavenging activity [8]: possesses antioxidant properties
